Legend:
corn (ZEAMD) = assay: Test J Compounds 2 and 6 alone and in combination with other herbicides, foliage spray; assay type: in vivo, Zea mays; design: key: percentage herbicidal effect (observed); details: applied alone
Excerpt: Colby's Equation was used to calculate the expected additive herbicidal effect of the mixtures of Compound 6 with Harmony® Extra (i.e. a 2:1 mixture by weight of thifensulfuron-methyl and tribenuron-methyl). […]
Seeds of test plants consisting of barnyardgrass (ECHCG; Echinochloa crus-galli (L.) Beauv.), blackgrass (ALOMY; Alopecurus myosuroides Huds.), Surinam grass (BRADC; Urochloa decumbens (Staph) R. D. Webster, previously named Brachiaria decumbens Stapf), cocklebur (XANST, Xanthium strumarium L.), corn (ZEAMD, Zea mays L. cv. ‘Pioneer 33G26’), large crabgrass (DIGSA, Digitaria sanguinalis (L.) Scop.), giant foxtail (SETFA, Setaria faberi Herrm.), lambsquarters (CHEAL, Chenopodium album L.), morningglory (IPOCO, Ipomoea coccinea L.), pigweed (AMARE, Amaranthus retroflexus L.), velvetleaf (ABUTH, Abutilon theophrasti Medik.) wheat (TRZAS, Triticum aestivum L. cv. ‘Recital’) and wild oat (AVEFA, Avena fatua L.) were planted in Redi-Earth® planting medium (Scotts Company, 14111 Scottslawn Road, Marysville, Ohio 43041) comprising spaghnum peat moss and vermiculite. […] Also listed in Table J are the expected effects for the mixtures calculated using Colby's Equation.

spotted spurge = assay: Test E pre-/postemergence herbicide test; assay type: in vivo, Euphorbia maculata
Excerpt: Seeds of plant species selected from bipinnate beggarticks (Bidens bipinnata L.), hairy beggarticks (Bidens radiata Thuill.), bermudagrass (Cynodon dactylon (L.) Pers.), Surinam grass (Urochloa decumbens (Staph) R. D. Webster, previously named Brachiaria decumbens Stapf), large crabgrass (Digitaria sanguinalis (L.) Scop.), green foxtail (Setaria viridis (L.) P. Beauv.), goosegrass (Eleusine indica (L.) Gaertn.), johnsongrass (Sorghum halepense (L.) Pers.), kochia (Kochia scoparia (L.) Schrad.), pitted morningglory (Ipomoea lacunosa L.), purple nutsedge (Cyperus rotundus L.), common ragweed (Ambrosia elatior L.), mustard (Brassica nigra (L.) W. D. J. Koch), guineagrass (Panicum maximum Jacq.), dallisgrass (Paspalum dilatatum Poir.), barnyardgrass (Echinochloa crus-galli (L). P. Beauv.), southern sandbur (Cenchrus echinatus L.), common sowthistle (Sonchus oleraceous L.), prickly sida (Sida spinosa L.), Italian ryegrass (Lolium multiflorum Lam.), common purslane (Portulaca oleracea L.), broadleaf signalgrass (Brachiaria platyphylla (Griseb.) Nash), common groundsel (Senecio vulgaris L.), common chickweed (Stellaria media (L.) Vill/Cyr.), tropical spiderwort (Commelina benghalensis L.), annual bluegrass (Poa annua L.), downy bromegrass (Bromus tectorum L.), itchgrass (Rottboellia cochinchinensis (L.) L.f.), quackgrass (Elytrigia repens (L.) Nevski), Canada horseweed (Erigeron Canadensis L.), field bindweed (Convolvulus arvensis L.), spotted spurge (Euphorbia maculata L.), common mallow (Malva sylvestris (=s silvestris) L.), and Russian thistle (Salsola kali L. ssp. Ruthenica (Iljin) Soo) were planted and treated preemergence with test chemicals formulated in a non-phytotoxic solvent mixture which included a surfactant.
At the same time, plants selected from these weed species were treated with postemergence applications of some of the test chemicals formulated in the same manner. […] Treated plants and controls were maintained in a greenhouse for 12 to 14 days, after which time all species were compared to controls and visually evaluated. […]

Russian thistle = assay: Test F pre-/postemergence herbicide test; assay type: in vivo, Salsola kali
Excerpt: Seeds of plant species selected from annual blugrass (Poa annua L.), blackgrass (Alopecurus myosuroides Huds.), catchweed bedstraw (Gallium aparine L.), common chickweed (Stellaria media (L.) Vill./Cyr.), downy bromegrass (Bromus tectorum L.), green foxtail (Setaria viridis (L.) Beauv.), Italian ryegrass (Lolium multiflorum Lam.), kochia (Kochia scoparia (L.). Schrad.), lambsquarters (Chenopodium album L.), littleseed canarygrass (Phalaris minor Retz.), pigweed (Amaranthus retroflexus L.), Russian thistle (Salsola kali L. ssp. Ruthenica (Iljin) Soo), wild buckwheat (Polygonum convolvulus L.), wild mustard (Sinapis arvensis L.), wild oat (Avena fatua L.), windgrass (Apera spica-venti (L.) Beauv.), winter barley (Hordeum vulgare L.), and wheat (Triticum aestivum L.) were planted and treated preemergence with test chemicals formulated in a non-phytotoxic solvent mixture which included a surfactant.
At the same time, plants selected from these crop and weed species were treated with postemergence applications of some of the test chemicals formulated in the same manner. Plants ranged in height from 2 to 18 cm (1- to 4-leaf stage) for postemergence treatments. Treated plants and controls were maintained in a greenhouse for 12 to 14 days, after which time all species were compared to controls and visually evaluated. Plant response ratings, summarized in Table F, are based on a scale of 0 to 100 where 0 is no effect and 100 is complete control. A dash (-) response means no test result.

For `CCn1nc(C(C)(C)C)cc1C(=O)Nc1cc(C(=O)N(C)C)ccc1F` [Compound 6, N-[5-[(dimethylamino)carbonyl]-2-fluorophenyl]-3-(1,1-dimethylethyl)-1-ethyl-1H-pyrazole-5-carboxamide], the “ZEAMD Obsd.” value (corn (ZEAMD); 62 g a.i./ha) was 22 and the “ZEAMD Obsd.” value (corn (ZEAMD); 125 g a.i./ha) was 28.

In the case of `CCNC(=O)c1ccnc(NC(=O)c2cc(C(C)(C)C)nn2CC)c1` [Compound 152], the “Plant response rating, Spurge, Spotted” value (spotted spurge; Postemergence, 500 g ai/ha, scale 0 to 100) is reported as 95, the “Plant response rating, Spurge, Spotted” value (spotted spurge; Preemergence, 125 g ai/ha, scale 0 to 100) is reported as 100 and the “Plant response rating, Spurge, Spotted” value (spotted spurge; Preemergence, 500 g ai/ha, scale 0 (no effect) to 100 (complete control)) is reported as 100.

For `CCn1nc(C(C)(C)C)cc1C(=O)Nc1cc(C(=O)OC(C)C)c(F)cc1F` [Compound 248], the “Plant response rating (0-100), Thistle” value (Russian thistle; Postemergence, 31 g ai/ha) was 25, the “Plant response rating (0-100), Thistle” value (Russian thistle; Postemergence, 62 g ai/ha) was 30 and the “Plant response rating (0-100), Thistle” value (Russian thistle; Postemergence, 125 g ai/ha) was 30. For the same compound, the “Plant response rating (0-100), Thistle” value (Russian thistle; Postemergence, 250 g ai/ha) was 40, the “Plant response rating (0-100), Thistle” value (Russian thistle; Preemergence, 31 g ai/ha) was 30 and the “Plant response rating (0-100), Thistle” value (Russian thistle; Preemergence, 62 g ai/ha) was 30. For the same compound, the “Plant response rating (0-100), Thistle” value (Russian thistle; Preemergence, 125 g ai/ha) was 30 and the “Plant response rating (0-100), Thistle” value (Russian thistle; Preemergence, 250 g ai/ha) was 45.
